Laboratory results from US9232799B2, “N-[(het)arylethyl)] pyrazole(thio)carboxamides and their heterosubstituted analogues” (BAYER INTELLECTUAL PROPERTY GMBH, priority 2010, dated 2016).
“And” between values parts separate entries of the source, which are not always exact repeats. Identical values can stand only once.

Columns and labels:
Fusarium graminearum = assay: microbe, parasite or virus in culture; format: cell-based; conditions: 50 μM
[1] = system: Blumeria graminis f.sp. hordei; assay: In vivo preventive test on Blumeria graminis (barley); conditions: 500 ppm of active ingredient, evaluated 7 days after inoculation
From the text: (§1) To test for preventive activity, young plants are sprayed with the preparation of active compound or active compound combination at the stated rate of application.

aflatoxines production = assay: microbe, parasite or virus in culture; format: cell-based, Aspergillus parasiticus; conditions: 50 μM
Pyrenophora teres = assay: In vivo preventive test on Pyrenophora teres (barley); conditions: 500 ppm of active ingredient, evaluated 7-9 days after inoculation
From the text: One day after this treatment, the plants are inoculated with an aqueous spore suspension of Pyrenophora teres.

Alternaria solani = assay: In vivo preventive test on Alternaria solani (tomato); conditions: 500 ppm of active ingredient, evaluated 7 days after inoculation
From the text: One day after this treatment, the plants are inoculated with an aqueous spore suspension of Alternaria solani.

Sphaerotheca fuliginea = assay: In vivo preventive test on Sphaerotheca fuliginea (cucumber); conditions: 500 ppm of active ingredient, evaluated 7 days after inoculation
From the text: One day after this treatment, the plants are inoculated with an aqueous spore suspension of Sphaerotheca fuliginea.

Botrytis cinerea = assay: In vivo preventive test on Botrytis cinerea (beans)
From the text: To test for preventive activity, young plants are sprayed with the preparation of active compound. After the spray coating has dried on, 2 small pieces of agar covered with growth of Botrytis cinerea are placed on each leaf.

Venturia inaequalis = assay: In vivo preventive test on Venturia inaequalis (apple scab); conditions: 100 ppm of active ingredient, evaluated 10 days after inoculation
Septoria tritici = assay: In vivo preventive test on Septoria tritici (wheat); conditions: 500 ppm of active ingredient, evaluated 21 days after inoculation
From the text: as §1

[2] = system: Fusarium nivale (var. majus); assay: In vivo curative test on Fusarium nivale (wheat); conditions: 500 ppm of active ingredient, evaluated 5 days after inoculation
Leptosphaeria nodorum = assay: In vivo preventive test on Leptosphaeria nodorum (wheat); conditions: 500 ppm of active ingredient, evaluated 7-9 days after inoculation
From the text: One day after this treatment, the plants are inoculated with an aqueous spore suspension of Leptosphaeria nodorum.

Puccinia triticina = assay: In vivo preventive test on Puccinia triticina (wheat); conditions: evaluated 8 days after inoculation; for Efficacy: dose 500 ppm of active ingredient
Uromyces appendiculatus = assay: In vivo preventive test on Uromyces appendiculatus (beans); conditions: 100 ppm of active ingredient, evaluated 10 days after inoculation
[3] = logP by HPLC on reversed-phase column (C 18), EEC Directive 79/831 Annex V.A8; format: physicochemical
Method: In table 1, the logP values were determined in accordance with EEC Directive 79/831 Annex V.A8 by HPLC (High Performance Liquid Chromatography) on a reversed-phase column (C 18), using the method described below: Temperature: 40° C.; […]

[4] = system: Fusarium nivale (var. majus); assay: In vivo preventive test on Fusarium nivale (wheat); conditions: 500 ppm of active ingredient, evaluated 5 days after inoculation
From the text: as §1

Phakopsora pachyrhizi = assay: In vivo protective test on Phakopsora pachyrhizi (soybeans); conditions: dose 250 ppm of active ingredient, evaluated 11 days after inoculation
[5] = preventive, beans, 100 ppm of active ingredient, lesion size 2 days after inoculation

| Structure (SMILES) | % Inhibition of fungal growth at 50 μM (Fusarium graminearum) [%] | Efficacy [1] [%] | % Inhibition of Aflatoxin at 50 μM (aflatoxines production) [%] | Efficacy (Pyrenophora teres) [%] | Efficacy (Alternaria solani) [%] | Efficacy (Sphaerotheca fuliginea) [%] | Efficacy (Botrytis cinerea; [5]) [%] | Efficacy (Venturia inaequalis) [%] | Efficacy (Septoria tritici) [%] | Efficacy [2] [%] | Efficacy (Leptosphaeria nodorum) [%] | Efficacy (Puccinia triticina) | Efficacy (Uromyces appendiculatus) [%] | logP [3] | Efficacy (protection) (Puccinia triticina; preventive, 500 ppm of active ingredient) | Efficacy [4] [%] | Efficacy (Phakopsora pachyrhizi) [%] | Efficacy (Botrytis cinerea; dose 500 ppm of active ingredient, table K10) [%] | Efficacy (Botrytis cinerea; preventive, beans, 500 ppm of active ingredient, lesion size 2 days after inoculation) |
| --- | --- | --- | --- | --- | --- | --- | --- | --- | --- | --- | --- | --- | --- | --- | --- | --- | --- | --- | --- |
| CCC(NC(=O)c1c(C(F)F)nn(C)c1Cl)C(OC)c1ccc(Cl)cc1Cl (mixture of isomers) [Example 76] | 100 | 100 | 100 | 100 | 95 | 93 | 72 | 100 | 100 | 86 | – | – | – | – | – | – | – | – | – |
| CCOC(c1ccc(Cl)cc1Cl)C(C)NC(=O)c1c(C(F)F)nn(C)c1Cl (mixture of isomers) [Example 82] | 100 | – | 100 | 100 | 95 | 95 | 98 | 100 | 100 | 100 | – | – | – | – | – | – | – | – | – |
| CCOC(c1ccc(Cl)cc1Cl)C(C)NC(=O)c1c(C(F)F)nn(C)c1F (mixture of isomers) [Example 83] | 100 | 100 | 100 | 100 | 100 | 100 | 98 | 100 | 100 | 100 | 90 | – | – | – | – | – | – | – | – |
| COC(c1cc(Cl)cc(Cl)c1)C(C)NC(=O)c1c(C(F)F)nn(C)c1Cl (mixture of isomers) [Example 108] | 100 | – | 100 | 100 | 90 | – | – | 100 | 100 | 100 | – | 100% | 100 | – | – | – | – | – | – |
| COC(c1cc(Cl)cc(Cl)c1)C(C)NC(=O)c1c(C(F)F)nn(C)c1F (mixture of isomers) [Example 109] | 100 | 100 | 100 | 100 | 95 | 85 | – | 99 | 100 | 100 | – | – | – | – | – | – | – | – | – |
| Cn1nc(C(F)F)c(C(=O)N(CCc2ccccc2)C2CC2)c1F [Example 11] | 100 | 100 | 100 | 100 | 95 | 83 | – | – | 100 | 100 | 95 | – | – | 2.88 | – | – | – | – | – |
| CC(Cc1c(F)cccc1F)N(C(=O)c1c(C(F)F)nn(C)c1F)C1CC1 (stereo not shown) [Example 26] | 99 | 100 | 100 | 100 | 100 | 86 | – | – | 100 | 100 | 95 | 90% | – | 3.42 | – | – | – | – | – |
| CC(Cc1ccc(Cl)cc1Cl)NC(=S)c1c(C(F)F)nn(C)c1F (stereo not shown) [Example 70] | 100 | 100 | 100 | 100 | 95 | 98 | 100 | 100 | – | 92 | 78 | – | 75 | 4.16 | – | – | – | – | – |
| COC(CNC(=O)c1c(C(F)F)nn(C)c1Cl)c1ccc(Cl)cc1Cl (stereo not shown) [Example 74] | 100 | 100 | 100 | 95 | – | 75 | 93 | 100 | 100 | 100 | – | – | – | 3.48 | – | – | – | – | – |
| COC(CNC(=O)c1c(C(F)F)nn(C)c1F)c1ccc(Cl)cc1Cl (stereo not shown) [Example 75] | 100 | 100 | 100 | 100 | – | 80 | 95 | 95 | 100 | 86 | – | – | – | 3.25 | – | – | – | – | – |
| CCC(NC(=O)c1c(C(F)F)nn(C)c1F)C(OC)c1ccc(Cl)cc1Cl (stereo not shown) [Example 77] | 100 | 100 | 100 | 80 | 100 | 95 | 97 | 100 | 100 | 100 | 95 | – | – | 3.94 | – | – | – | – | – |
| Cn1nc(C(F)F)c(C(=O)N(C2CC2)C2CCCC2c2ccc(Cl)cc2Cl)c1F (stereo not shown) [Example 211] | 100 | 100 | 100 | 100 | 100 | 100 | 100 | 100 | 100 | – | 95 | 100% and 98% | 100 | 4.67 | greater than 95% | 100 | 80 | – | – |
| Cn1nc(C(F)F)c(C(=O)N(C[Si](C)(C)c2ccccc2Cl)C2CC2)c1F [Example 231] | 100 | 100 | 100 | 100 | 94 | 100 | 99 | 99 | 100 | – | 100 | 100% | 100 | 4.13 | – | 83 | 80 | – | – |
| Cn1nc(C(F)F)c(C(=O)N(C[Si](C)(C)c2cccc(Cl)c2)C2CC2)c1F [Example 235] | 100 | 94 | 100 | 100 | 100 | 95 | 99 | 100 | 100 | – | 100 | 100% | 100 | 4.18 | – | 100 | 100 | – | – |
| Cn1nc(C(F)F)c(C(=O)N(C[Si](C)(C)c2ccc(Cl)cc2Cl)C2CC2)c1F [Example 238] | 100 | 100 | 100 | 100 | 94 | 98 | 100 | 100 | 100 | – | 100 | 100% | 100 | 4.78 | – | 83 | 85 | – | – |
| Cn1nc(C(F)F)c(C(=O)N(C[Si](C)(C)c2cc(Cl)cc(Cl)c2)C2CC2)c1F [Example 242] | 100 | 100 | 100 | 100 | 100 | – | 100 | 100 | 100 | – | 100 | 100% | 100 | 4.78 | – | 83 | 99 | 100 | total protection |
